Patent US12084472B2 (Ardelyx, Inc., priority 2015, dated 2024)

Target: T1, human TGR5 (Homo sapiens, UniProt Q8TDU6)
T1 construct: expressed in transfected cells; host or cells: HEK293
T1 sequence (Q8TDU6 1-330): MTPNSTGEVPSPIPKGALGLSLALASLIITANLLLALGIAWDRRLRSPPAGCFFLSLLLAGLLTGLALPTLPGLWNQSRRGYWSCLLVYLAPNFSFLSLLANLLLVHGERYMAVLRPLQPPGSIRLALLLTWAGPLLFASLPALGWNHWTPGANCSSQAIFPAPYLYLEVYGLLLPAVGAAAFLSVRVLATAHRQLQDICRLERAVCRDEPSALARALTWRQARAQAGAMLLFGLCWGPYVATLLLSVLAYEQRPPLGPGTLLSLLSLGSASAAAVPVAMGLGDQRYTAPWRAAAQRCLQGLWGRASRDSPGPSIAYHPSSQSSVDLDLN
Assay: Cell-based TGR5 assay (cAMP generation, HTRF)
Settings: HEK293 cells stably transfected with human TGR5; cAMP by HTRF; 30 minutes at 37° C.; read-out: pEC50 Human TGR5 (converted)
Outline: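 Read-out was HTRF detection of cAMP, converted to concentration via a standard curve and fitted (3-parameter logistic) for pEC50 and maximal response. Agonist stimulation used HEK293 cells stably transfected with human TGR5, incubated 30 min at 37° C in IBMX-containing buffer at 0.05 nM to 10 μM compound.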

SMILES	EC50 [nM]
Cc1ccc(C(C)CCCC(=O)N(CC(N)=O)C[C@H](O)[C@@H](O)[C@H](O)[C@H](O)CO)cc1CNC1(c2cnccc2-c2ccccc2OC2CC2)CC1 (stereo partly drawn) [Compound I-356, N-(carbamoylmethyl)-5-{3-[({1-[4-(2-cyclopropoxyphenyl)pyridin-3-yl]cyclopropyl}amino)methyl]-4-methylphenyl}-N-[(2S,3R,4R,5R)-2,3,4,5,6-pentahydroxyhexyl]hexanamide]	< 100
CN(C)C(=O)c1ccc(Cl)c(COC2(c3cnccc3-c3ccccc3OC3CC3)CC2)c1 [Compound I-725, 4-Chloro-3-((1-(4-(2-cyclopropoxyphenyl)pyridin-3-yl)cyclopropoxy)methyl)-N,N-dimethylbenzamide]	126 to 1000
Cc1ccc(C(C)CCCCNC(=O)[C@@H](O)[C@@H](O)[C@H](O)[C@@H](O)CO)cc1COC1(c2cnccc2-c2ccccc2OC2CC2)CC1 (stereo partly drawn) [Compound I-312, (2S,3S,4R,5S)-N-{5-[3-({1-[4-(2-cyclopropoxyphenyl)pyridin-3-yl]cyclopropoxy}methyl)-4-methylphenyl]hexyl}-2,3,4,5,6-pentahydroxyhexanamide]	< 100
Cc1ccc(C(C)CCCC(=O)N(C)C[C@H](O)[C@@H](O)[C@H](O)[C@H](O)CO)cc1CNC1(c2cnccc2-c2ccccc2OC2CC2)CC1 (stereo partly drawn) [Compound I-352, 5-{3-[({1-[4-(2-cyclopropoxyphenyl)pyridin-3-yl]cyclopropyl}amino)methyl]-4-methylphenyl}-N-methyl-N-[(2S,3R,4R,5R)-2,3,4,5,6-pentahydroxyhexyl]hexanamide]	< 100
Cc1ccc(SCCCCN(CCCS(C)(=O)=O)C(=O)[C@@H](O)[C@@H](O)[C@H](O)[C@@H](O)CO)cc1COC1(c2cnccc2-c2ccccc2OC2CC2)CC1 [Compound I-561, (2S,3S,4R,5S)-N-(4-{[3-({1-[4-(2-cyclopropoxyphenyl)pyridin-3-yl]cyclopropoxy}methyl)-4-methylphenyl]sulfanyl}butyl)-2,3,4,5,6-pentahydroxy-N-(3-methanesulfonylpropyl)hexanamide]	126 to 1000
Cc1ccc(Cl)c(COC2(c3cnccc3-c3ccccc3OC3CC3)CC2)c1 [Compound I-54, 3-{1-[(2-chloro-5-methylphenyl)methoxy]cyclopropyl}-4-(2-cyclopropoxyphenyl)pyridine]	< 100
Cc1cc(COC2(c3cnccc3-c3ccccc3OC3CC3)CC2)c(Cl)cc1CCCCNC(=O)[C@@H](O)[C@@H](O)[C@H](O)[C@@H](O)CO (stereo in doubt) [Compound I-172, (2S,3S,4R,5S)-N-{4-[5-chloro-4-({1-[4-(2-cyclopropoxyphenyl)pyridin-3-yl]cyclopropoxy)methyl)-2-methylphenyl]butyl}-2,3,4,5,6-pentahydroxyhexanamide]	< 100
CC(=O)NCCN(CCCSc1ccc(Cl)c(CNC2(c3cnccc3-c3ccccc3OC3CC3)CC2)c1)C(=O)[C@@H](O)[C@@H](O)[C@H](O)[C@@H](O)CO [Compound I-586, (2S,3S,4R,5S)-N-[3-({4-chloro-3-[({1-[4-(2-cyclopropoxyphenyl)pyridin-3-yl]cyclopropyl}amino)methyl]phenyl}sulfanyl)propyl]-N-(2-acetamidoethyl)-2,3,4,5,6-pentahydroxyhexanamide]	126 to 1000
CC(CCCC(=O)N(CCC(N)=O)C[C@H](O)[C@@H](O)[C@H](O)[C@H](O)CO)c1ccc(Cl)c(CNC2(c3cnccc3-c3ccccc3OC3CC3)CC2)c1 (stereo partly drawn) [Compound I-335, N-(2-carbamoylethyl)-5-{4-chloro-3-[({1-[4-(2-cyclopropoxyphenyl)pyridin-3-yl]cyclopropyl}amino)methyl]phenyl}-N-[(2S,3R,4R,5R)-2,3,4,5,6-pentahydroxyhexyl]hexanamide]	126 to 1000
Cc1ccc(SCCCN(C(=O)[C@@H](O)[C@@H](O)[C@H](O)[C@@H](O)CO)C2CCOCC2)cc1CNC1(c2cnccc2-c2ccccc2OC2CC2)CC1 [Compound I-547, (2S,3S,4R,5S)-N-[3-({3-[({1-[4-(2-cyclopropoxyphenyl)pyridin-3-yl]cyclopropyl}amino)methyl]-4-methylphenyl}sulfanyl)propyl]-2,3,4,5,6-pentahydroxy-N-(oxan-4-yl)hexanamide]	1260 to 10000
CC[C@@H](O)CN(C[C@H](O)[C@@H](O)[C@H](O)[C@H](O)CO)C(=O)CCCCc1cc(Cl)c(COC2(c3cnccc3-c3ccccc3OC3CC3)CC2)cc1Cl [Compound I-123, 5-[2,5-dichloro-4-({1-[4-(2-cyclopropoxyphenyl)pyridin-3-yl]cyclopropoxy}methyl)phenyl]-N-[(2R)-2-hydroxybutyl]-N-[(2S,3R,4R,5R)-2,3,4,5,6-pentahydroxyhexyl]pentanamide]	< 100
CC(CCCC(=O)NCCN1CCN(C(=O)NC[C@H](O)[C@@H](O)[C@H](O)[C@H](O)CO)CC1)c1ccc(Cl)c(CNC2(c3cnccc3-c3ccccc3OC3CC3)CC2)c1 (stereo partly drawn) [Compound I-322, 4-[2-(5-{4-chloro-3-[({1-[4-(2-cyclopropoxyphenyl)pyridin-3-yl]cyclopropyl}amino)methyl]phenyl}hexanamido)ethyl]-N-[(2S,3R,4R,5R)-2,3,4,5,6-pentahydroxyhexyl]piperazine-1-carboxamide]	< 100
O=C(NCCCCCc1cc(Cl)c(COC2(c3cnccc3-c3ccccc3OC3CC3)CC2)cc1Cl)NC[C@H](O)[C@@H](O)[C@H](O)[C@H](O)CO (stereo in doubt) [Compound I-225, 1-{5-[2,5-dichloro-4-({1-[4-(2-cyclopropoxyphenyl)pyridin-3-yl]cyclopropoxy}methyl)phenyl]pentyl}-3-[(2S,3R,4R,5R)-2,3,4,5,6-pentahydroxyhexyl]urea]	< 100
CN(C[C@H](O)[C@@H](O)[C@H](O)[C@H](O)CO)C(=O)NCCCCc1cc(Cl)c(CNC2(c3cnccc3-c3ccccc3OC3COC3)CC2)cc1Cl [Compound I-175, 1-[4-(2,5-dichloro-4-{[(1-{4-[2-(oxetan-3-yloxy)phenyl]pyridin-3-yl}cyclopropyl)amino]methyl}phenyl)butyl]-3-methyl-3-[(2S,3R,4R,5R)-2,3,4,5,6-pentahydroxyhexyl]urea]	126 to 1000
Cc1cc(COC2(c3cnccc3-c3ccccc3OC3CC3)CC2)c(Cl)cc1CCCCNC(=O)N(C)C[C@H](O)[C@@H](O)[C@H](O)[C@H](O)CO [Compound I-167, 1-{4-[5-chloro-4-({1-[4-(2-cyclopropoxyphenyl)pyridin-3-yl]cyclopropoxy}methyl)-2-methylphenyl]butyl}-3-methyl-3-[(2S,3R,4R,5R)-2,3,4,5,6-pentahydroxyhexyl]urea]	< 100
Clc1ccc(Cl)c(COC2(c3cnccc3-c3ccccc3OC3CC3)CC2)c1 [Compound I-46, 4-(2-cyclopropoxyphenyl)-3-{1-[(2,5-dichlorophenyl)methoxy]cyclopropyl}pyridine]	< 100
Cc1ccc(C(C)CCCN(CCS(C)(=O)=O)C(=O)[C@@H](O)[C@@H](O)[C@H](O)[C@@H](O)CO)cc1CNC1(c2cnccc2-c2ccccc2OC2CC2)CC1 (stereo partly drawn) [Compound I-305, (2S,3S,4R,5S)-N-(4-{3-[({1-[4-(2-cyclopropoxyphenyl)pyridin-3-yl]cyclopropyl}amino)methyl]-4-methylphenyl}pentyl)-2,3,4,5,6-pentahydroxy-N-(2-methanesulfonylethyl) hexanamide]	< 100
